In PMC3898733 (ACS nano, 2013):

Tested on: Factor VII
Experiment: In vivo Factor VII silencing
Settings: for knock down of coagulation Factor VII: as stated in the abstract, dose not printed there; for activity in decreasing Factor VII expression: nanoparticles decorated with scrambled peptide, three days post injection

Row | Substance | knock down of coagulation Factor VII | reduction of Factor VII expression (peptide decorated nanoparticles with Factor VII siRNA, tail vein, 5 mg/kg siRNA, blood three days post-injection, n=5) | activity in decreasing Factor VII expression (5 mg/kg siRNA)
1 | CWLCRALIKRIQAMIP [compound 5] | 90% | 50% | 
2 | KRCRGWRQKMCLW |  |  | did not exhibit any activity
3 | LRGYEGHRCGILALLDLACTKHANCLPCTQPS |  |  | did not exhibit any activity
4 | MLRIAIRAWLCIPQCK |  |  | did not exhibit any activity
5 | lactoferricin | 90% |  | 
